Molecules are shown by their SMILES. Like-named read-outs stand apart in the source and are kept apart here.

One series has as its system A431 skin cancer cells. In words: Antiproliferative activity, MTT test. The format is cell-based, human. The conditions noted are these: 72 h, hypoxic conditions. An excerpt: To evaluate the influence of CA inhibition on the antiproliferative activity, we selected five compounds 4b, f, m, n and 10 with different inhibition profiles against CA IX for in-depth testing on cancer cells with increased CA IX expression. The database www.proteinatlas.org (accessed on 13 October 2022) contains data on gene expression in various cell lines. According to the data obtained from this database, A431 cells express CA IX at a very high level, which distinguishes them from human cell lines belonging to other tissues [https://www.proteinatlas.org/ENSG00000107159-CA9/cell+line (accessed on 13 October 2022)]. A431 cells are skin cancer cells, and their growth has already been intensely analyzed in hypoxia. […] Moreover, Ren and colleagues described that hypoxia modulates cellular pathways in A431 cells, which are associated with radioresistance and enhanced migration. Given the observations described above, we were expecting to reveal the high antiproliferative activity of the selected compounds against skin cancer cells. […] In hypoxia, the activity of tested compounds was increased, but the 50% inhibition of growth was never achieved.
The MCF7 human breast, A431 human skin cancer cells and K562 (ATCC CCL-243) chronic myelogenous leukemia cells were obtained from the ATCC collection. The MDR subline K562/4 [77] […] The growth inhibitory activity of compounds was assessed by the MTT test based on the metabolism of the MTT reagent (3-[4,5-dimethylthiazol-2-yl]-2,5-diphenyltetrazolium bromide) (Applichem) in living cells, with modifications as described previously in [49]. […] Culture plates were gently shaken, and the absorbance was measured at 571 nm with a reference wavelength of 630 nm on a MultiScan reader (ThermoFisher, Waltham, MA, USA). The viability of the cells was expressed as a percentage of the control. Dose-response curves were analyzed by regression analysis using sigmoid curves (Log(concentration) vs. normalized absorbance).
Background: Tetrazolium dyes change colour on reduction, which living cells bring about.

Another series deals with MCF7 cells. Put plainly: Antiproliferative activity, MTT test. The format is cell-based. The note with it: Homo sapiens, MTT assay after 72 h exposure. The protocol:
A series of synthesized indoline-5-sulfonamides was tested on the MCF7 cancer cell line under normoxia and hypoxia using the MTT test.
The MDR subline K562/4 [77] (kind gift of Dr. Alexander Shtil, Blokhin N.N. National Medical Research Center of Oncology) was obtained by stepwise selection of K562 cells for survival under continuous exposure to Dox. This subline expresses the MDR1 gene and functional P-gp and is characterized by a high resistance index for Dox. […] Cells in the logarithmic phase of growth were used in the experiments. The growth inhibitory activity of compounds was assessed by the MTT test based on the metabolism of the MTT reagent (3-[4,5-dimethylthiazol-2-yl]-2,5-diphenyltetrazolium bromide) (Applichem) in living cells, with modifications as described previously in [49]. Compounds at different concentrations in 100 μL of the appropriate medium were added, and the cells were grown for 72 h. The hypoxia (1% O2) conditions were simulated in Binder multigas incubator, as described in [49]. After incubation with compounds, the medium was removed, the MTT reagent that was dissolved in the medium was added to the final concentration of 0.2 mg/mL to each well, and the incubation was performed for 2 h. Then the cell supernatants were removed, and purple formazan crystals were dissolved in 100% DMSO (350 μL per well). Culture plates were gently shaken, and the absorbance was measured at 571 nm with a reference wavelength of 630 nm on a MultiScan reader (ThermoFisher, Waltham, MA, USA). The viability of the cells was expressed as a percentage of the control. Dose-response curves were analyzed by regression analysis using sigmoid curves (Log(concentration) vs. normalized absorbance).
All results were reported as means ± SD. One-way analysis of variance was used for the analysis of data. Differences were defined as significant at p < 0.05. GraphPad Prism7 (GraphPad Software, San Diego, CA, USA) was used for the determination of the half-maximal inhibitory concentration (IC50) values.

A further series relates to K562/4 cells. Put plainly: Reversal of chemoresistance to Dox, MTT test. The format is cell-based, human. From the text: Earlier, Kopecka and colleagues have shown that CA XII can interact with P-gp and influence its activity. Subsequently, silencing or inhibition of CA XII by chemical agents may restore the sensitivity to Dox of resistant K562 and other tumor cells. Given the potent inhibition of 4f against CA XII and the activity of 4e against K562, we examined their ability to reverse the chemoresistance of K562/4 with P-gp to Dox.
The MCF7 human breast, A431 human skin cancer cells and K562 (ATCC CCL-243) chronic myelogenous leukemia cells were obtained from the ATCC collection. The MDR subline K562/4 [77] (kind gift of Dr. Alexander Shtil, Blokhin N.N. National Medical Research Center of Oncology) was obtained by stepwise selection of K562 cells for survival under continuous exposure to Dox. This subline expresses the MDR1 gene and functional P-gp and is characterized by a high resistance index for Dox. The MCF7 and A431 cells were cultured in standard 4.5 g/L glucose DMEM medium (Gibco) supplemented with 10% FCS (HyClone), 2 mM L-glutamine, 50 U/mL penicillin, 50 µg/mL streptomycin (PanEco), 100 µg/mL sodium pyruvate (Santa Cruz) at 37 °C, 5% CO2 and 80–85% humidity in NuAire incubator. Suspension myelogenous leukemia cells (K562, K562/4) were propagated in RPMI-1640 (PanEco) with 5% FCS (HyClone), 2 mM L-glutamine, 100 U/mL penicillin, and 100 µg/mL streptomycin at 37 °C, 5% CO2, and 80–85% humidity in Binder incubator. Cells in the logarithmic phase of growth were used in the experiments. The growth inhibitory activity of compounds was assessed by the MTT test based on the metabolism of the MTT reagent (3-[4,5-dimethylthiazol-2-yl]-2,5-diphenyltetrazolium bromide) (Applichem) in living cells, with modifications as described previously in [49]. Compounds at different concentrations in 100 μL of the appropriate medium were added, and the cells were grown for 72 h. The hypoxia (1% O2) conditions were simulated in Binder multigas incubator, as described in [49]. After incubation with compounds, the medium was removed, the MTT reagent that was dissolved in the medium was added to the final concentration of 0.2 mg/mL to each well, and the incubation was performed for 2 h. Then the cell supernatants were removed, and purple formazan crystals were dissolved in 100% DMSO (350 μL per well). Culture plates were gently shaken, and the absorbance was measured at 571 nm with a reference wavelength of 630 nm on a MultiScan reader (ThermoFisher, Waltham, MA, USA). The viability of the cells was expressed as a percentage of the control. Dose-response curves were analyzed by regression analysis using sigmoid curves (Log(concentration) vs. normalized absorbance).
Figure 6 Susceptibility of resistant K562/4 line to combinations of Dox (25 µM) with indoline-5-sulfonamides 4e and 4f. […]

What is called IC50 is the concentration at which inhibition is half-maximal. For orientation: melting point means the temperature, or range, at which the solid turns liquid. Regarding `NS(=O)(=O)c1ccc2c(c1)CCN2C(=O)c1cccc(Cl)c1` [Compound 4f, 1-(3-Chlorobenzoyl)indoline-5-sulfonamide], the melting point was above 250 °C. Further, the “inhibition of growth of A431 cells, hypoxia” value in the series on A431 skin cancer cells was 44%. The half-inhibitory concentration (IC50) with MCF7 cells (hypoxia (1% O2), read-out: IC50 against MCF7 Cells, Hypoxia) was found to be 12.9 ± 1.2 µM. Besides, the IC50 with MCF7 cells (normoxia, read-out: IC50 against MCF7 Cells, Normoxia) was found to be 24.5 ± 1.9 µM. Further, in the series on K562/4 cells (combination with Dox (25 µM)), the “effect of combination with Dox on viable K562/4 cells” value is “decline of viable K562/4 cells”. The “cytotoxic activity against MDR subline K562/4 as monoagent” value in the series on K562/4 cells (monoagent) is on record as “low cytotoxic activity”.
